Where a SMILES comes first, the peptide text is derived from it.
What was measured:
[1] = system: full-thickness wounds on back skin of diabetes rats (DM Rat); test: Action on skin wound healing, streptozotocin diabetes rats; format: in vivo, rats (Wistar); conditions: ointment once a day, substance P 2.5 mg/ml, IGF-I 1 μg/ml, average of five
Procedure: (§1) Streptozotocin (70 mg/kg BW) dissolved in a citric acid buffer was injected intravenously into tails of rats (Wistar) under diethyl ether inhalation anesthesia to prepare diabetes rats (DM Rat) (five rats per group). An equal amount of the citric acid buffer alone was injected intravenously into rats (Wistar) to prepare non-diabetes rats (non DM Rat) (five rats per group). Four weeks after the intravenous injection, the back of all the rats was shaved with hair clippers under diethyl ether inhalation anesthesia, and hair was removed with cream for depilation. After 24 hours, five full-thickness (i.e. epidermis and dermis) wounds were made on back skin in equal intervals with a trepan for skin biopsy having a diameter of 5 mm. Confirming hemostasis, each ointment in Tables 2 and 3 was applied on the wound once a day. Just before applying the ointment once a day, the back wounds were photographed, and their areas were measured. […] The values in these tables are the average of five samples.

[2] = system: full-thickness wounds on back skin of non-diabetes rats (non DM Rat); test: Action on skin wound healing, non-diabetes rats; format: in vivo, rats (Wistar); conditions: ointment once a day, substance P 2.5 mg/ml, IGF-I 1 μg/ml, average of five
Procedure: as §1

[3] = system: ear tissue pieces (epidermal cell layer); test: Action on epidermal extension (cultured rat ear tissue pieces); format: cell-based, rats (Spraque-Dawley); conditions: for Extension length of epidermis: TCM 199 medium, cultured 24 hours, substance P or FGLM 20 μM, IGF-I 10 ng/ml, average of 12 samples; for Epidermal extension compared with control (in words): each drug used solely
Procedure: Excessive pentobarbital was administered to rats (Spraque-Dawley), and then ear tissue pieces of about 2×4 mm were prepared. Into a 60 mm Petri dish was put 18 ml of each TCM 199 culture medium containing each of test drugs in Table 1 [substance P, FGLM (SEQ ID NO: 2), IGF-I, substance P+IGF-I and FGLM (SEQ ID NO: 2)+IGF-I], and […] were added to each Petri dish (12 samples: three sections per group). The tissue pieces were cultured in a CO2 incubator (37° C.·5% CO2) for 24 hours, the tissue pieces were fixed with ethanol-acetic acid (volume ratio 95:5) to prepare three tissue sections per tissue piece according to the conventional method. The tissue sections were stained with hematoxylin-eosin, and then length of a epidermal cell layer having extended cut surfaces was measured. The tissue pieces were cultured under the same condition as mentioned above using a culture medium containing no test drug to prepare controls. The values in the table are the average of 12 samples.

| Molecule | Skin wound area of diabetes rat ([1]; 1st day) | Skin wound area of diabetes rat ([1]; After 1 day) | Skin wound area of diabetes rat ([1]; After 4 days) | Skin wound area of diabetes rat ([1]; After 7 days) | Skin wound area of diabetes rat ([1]; After 10 days) | Skin wound area of non-diabetes rat ([2]; 1st day) | Skin wound area of non-diabetes rat ([2]; After 2 days) | Skin wound area of non-diabetes rat ([2]; After 4 days) | Skin wound area of non-diabetes rat ([2]; After 6 days) | Extension length of epidermis [3] | Epidermal extension compared with control (in words) [3] |
| --- | --- | --- | --- | --- | --- | --- | --- | --- | --- | --- | --- |
| IGF-I: insulin-like growth factor-I | 100% | 89% | 64% | 52% | 27% | 100% | 81% | 66% | 43% | 50.68 μm | almost as long as that in the case where the control is used |
| CSCC[C@H](NC(=O)[C@H](CC(C)C)NC(=O)CNC(=O)[C@H](Cc1ccccc1)NC(=O)[C@H](Cc1ccccc1)NC(=O)[C@H](CCC(N)=O)NC(=O)[C@H](CCC(N)=O)NC(=O)[C@@H]1CCCN1C(=O)[C@H](CCCCN)NC(=O)[C@@H]1CCCN1C(=O)[C@@H](N)CCCNC(=N)N)C(N)=O [Substance P, Arg-Pro-Lys-Pro-Gln-Gln-Phe-Phe-Gly-Leu-Met-NH2] | 100% | 90% | 77% | 68% | 44% | 100% | 88% | 74% | 59% | 72.57 μm | almost as long as that in the case where the control is used |
| CSCC[C@H](NC(=O)[C@H](CC(C)C)NC(=O)CNC(=O)[C@@H](N)Cc1ccccc1)C(N)=O [FGLM, Phe-Gly-Leu-Met-NH2] (H-FGLM-NH2) |  |  |  |  |  |  |  |  |  | 55.37 μm | almost as long as that in the case where the control is used |
